Species: Rattus norvegicus
Experiment: DrugMatrix - Regimen: Daily Repeat
Format: toxicity, organism-based, Sprague-Dawley
Set-up: regimen Daily Repeat, gender Male, age 6-8 weeks
Settings: in vivo, po, route oral GAVAGE, vehicle .5 % CMC; for ABSOLUTE EOSINOPHIL / ABSOLUTE LYMPHOCYTE / ABSOLUTE MONOCYTE / ABSOLUTE SEGMENTED NEUTROPHIL / BASOPHIL / EOSINOPHIL / ERYTHROCYTE COUNT / HEMATOCRIT / HEMOGLOBIN / LEUKOCYTE COUNT / LYMPHOCYTE / MEAN CORPUSCULAR HEMOGLOBIN CONCENTRATION / MEAN CORPUSCULAR VOLUME / MONOCYTE / NEUTROPHIL / NUCLEATED RED BLOOD CELLS / PLATELET COUNT / ABSOLUTE BASOPHIL: tissue Blood; for ALANINE AMINOTRANSFERASE / ALBUMIN / ALKALINE PHOSPHATASE / BLOOD UREA NITROGEN / CARBON DIOXIDE / CHLORIDE / CHOLESTEROL / CREATINE PHOSPHOKINASE / CREATININE / GLUCOSE / LACTATE DEHYDROGENASE / LIPASE / PHOSPHORUS / POTASSIUM / SODIUM / TOTAL BILIRUBIN / TOTAL PROTEIN: tissue Plasma
[1] = 60 mg/kg, 120 h, dose level High, time 5 day
[2] = […], 72 h, dose 1.5 mg/Kg, dose level Low, time 3 day
[3] = […], 120 h, dose 1.5 mg/Kg, dose level Low, time 5 day

In the case of `CO[C@H]1C[C@@H]2CC[C@@H](C)[C@@](O)(O2)C(=O)C(=O)N2CCCC[C@H]2C(=O)O[C@H]([C@H](C)C[C@@H]2CC[C@@H](O)[C@H](OC)C2)CC(=O)[C@H](C)/C=C(\C)[C@@H](O)[C@@H](OC)C(=O)[C@H](C)C[C@H](C)/C=C/C=C/C=C/1C` [SIROLIMUS], the “ABSOLUTE EOSINOPHIL” value [1] is reported as 0 CELLS/uL, the “ABSOLUTE LYMPHOCYTE” value [1] is reported as 6680.33 CELLS/uL and the “ABSOLUTE MONOCYTE” value [1] is reported as 49.67 CELLS/uL. The “ABSOLUTE SEGMENTED NEUTROPHIL” value [1] was 670 CELLS/uL, the BASOPHIL [1] was 0% and the EOSINOPHIL [1] was 0%. The “ERYTHROCYTE COUNT” value [1] was 6.63 x10E6/uL, the HEMATOCRIT [1] was 40% and the HEMOGLOBIN [1] was 15.77 G/DL. The “LEUKOCYTE COUNT” value [1] was 7.4 x10E3/uL, the LYMPHOCYTE [1] was 90.33% and the “MEAN CORPUSCULAR HEMOGLOBIN CONCENTRATION” value [1] was 39.4 G/DL. The “MEAN CORPUSCULAR VOLUME” value [1] was 60.43 fL, the MONOCYTE [1] was 0.67% and the NEUTROPHIL [1] was 9%. The “NUCLEATED RED BLOOD CELLS” value [1] was 0 /100WBC, the “PLATELET COUNT” value [1] was 709.33 x10E3/uL and the “ALANINE AMINOTRANSFERASE” value [1] was 49.33 u/L. The ALBUMIN [1] was 4.2 G/DL, the “ALKALINE PHOSPHATASE” value [1] was 311.67 u/L and the “BLOOD UREA NITROGEN” value [1] was 20.67 mg/dL. The “CARBON DIOXIDE” value [1] was 28.33 mmol/L, the CHLORIDE [1] was 99.67 MEQ/L and the CHOLESTEROL [1] was 81.67 mg/dL. For the same compound, the “CREATINE PHOSPHOKINASE” value [1] was 479 u/L, the CREATININE [1] was 0.24 mg/dL and the GLUCOSE [1] was 202.33 mg/dL. For the same compound, the “LACTATE DEHYDROGENASE” value [1] was 231.33 u/L, the LIPASE [1] was 9.67 u/L and the PHOSPHORUS [1] was 10.43 mg/dL. For the same compound, the POTASSIUM [1] was 4.97 MEQ/L, the SODIUM [1] was 145.27 MEQ/L and the “TOTAL BILIRUBIN” value [1] was 0.2 mg/dL. The “TOTAL PROTEIN” value [1] was 6.23 G/DL, the “ABSOLUTE BASOPHIL” value [2] was 0 CELLS/uL and the “ABSOLUTE EOSINOPHIL” value [2] was 267 CELLS/uL. The “ABSOLUTE LYMPHOCYTE” value [2] was 13791 CELLS/uL, the “ABSOLUTE MONOCYTE” value [2] was 267 CELLS/uL and the “ABSOLUTE SEGMENTED NEUTROPHIL” value [2] was 1575 CELLS/uL. The BASOPHIL [2] was 0%, the EOSINOPHIL [2] was 1.67% and the “ERYTHROCYTE COUNT” value [2] was 5.63 x10E6/uL. The HEMATOCRIT [2] was 36.33%, the HEMOGLOBIN [2] was 13.8 G/DL and the “LEUKOCYTE COUNT” value [2] was 15.9 x10E3/uL. For the same compound, the LYMPHOCYTE [2] was 87%, the “MEAN CORPUSCULAR HEMOGLOBIN CONCENTRATION” value [2] was 38 G/DL and the “MEAN CORPUSCULAR VOLUME” value [2] was 64.5 fL. For the same compound, the MONOCYTE [2] was 1.67%, the NEUTROPHIL [2] was 9.67% and the “NUCLEATED RED BLOOD CELLS” value [2] was 0 /100WBC. For the same compound, the “PLATELET COUNT” value [2] was 1156 x10E3/uL, the “ALANINE AMINOTRANSFERASE” value [2] was 52.33 u/L and the ALBUMIN [2] was 4.23 G/DL. The “ALKALINE PHOSPHATASE” value [2] was 361.33 u/L, the “BLOOD UREA NITROGEN” value [2] was 17.33 mg/dL and the “CARBON DIOXIDE” value [2] was 27.33 mmol/L. For the same compound, the CHLORIDE [2] was 99 MEQ/L, the CHOLESTEROL [2] was 79.33 mg/dL and the “CREATINE PHOSPHOKINASE” value [2] was 205.33 u/L. The CREATININE [2] was 0.21 mg/dL, the GLUCOSE [2] was 162 mg/dL and the “LACTATE DEHYDROGENASE” value [2] was 201.67 u/L. For the same compound, the LIPASE [2] was 10 u/L, the PHOSPHORUS [2] was 12.33 mg/dL and the POTASSIUM [2] was 6.49 MEQ/L. The SODIUM [2] was 144 MEQ/L, the “TOTAL BILIRUBIN” value [2] was 0.2 mg/dL and the “TOTAL PROTEIN” value [2] was 6 G/DL. The “ABSOLUTE BASOPHIL” value [3] was 0 CELLS/uL, the “ABSOLUTE EOSINOPHIL” value [3] was 0 CELLS/uL and the “ABSOLUTE LYMPHOCYTE” value [3] was 12718.33 CELLS/uL. For the same compound, the “ABSOLUTE MONOCYTE” value [3] was 96 CELLS/uL, the “ABSOLUTE SEGMENTED NEUTROPHIL” value [3] was 1619 CELLS/uL and the BASOPHIL [3] was 0%. The EOSINOPHIL [3] was 0%, the “ERYTHROCYTE COUNT” value [3] was 5.45 x10E6/uL and the HEMATOCRIT [3] was 33.87%. The HEMOGLOBIN [3] was 13.8 G/DL, the “LEUKOCYTE COUNT” value [3] was 14.43 x10E3/uL and the LYMPHOCYTE [3] was 87.67%. The “MEAN CORPUSCULAR HEMOGLOBIN CONCENTRATION” value [3] was 40.77 G/DL, the “MEAN CORPUSCULAR VOLUME” value [3] was 62.2 fL and the MONOCYTE [3] was 0.67%. The NEUTROPHIL [3] was 11.67%, the “NUCLEATED RED BLOOD CELLS” value [3] was 0 /100WBC and the “PLATELET COUNT” value [3] was 1286.33 x10E3/uL. For the same compound, the “ALANINE AMINOTRANSFERASE” value [3] was 92.33 u/L, the ALBUMIN [3] was 3.8 G/DL and the “ALKALINE PHOSPHATASE” value [3] was 328.67 u/L. For the same compound, the “BLOOD UREA NITROGEN” value [3] was 17.33 mg/dL, the “CARBON DIOXIDE” value [3] was 20.33 mmol/L and the CHLORIDE [3] was 99 MEQ/L. The CHOLESTEROL [3] was 66.67 mg/dL, the “CREATINE PHOSPHOKINASE” value [3] was 1089 u/L and the CREATININE [3] was 0.25 mg/dL. The GLUCOSE [3] was 251.33 mg/dL, the “LACTATE DEHYDROGENASE” value [3] was 725.33 u/L and the LIPASE [3] was 11 u/L. For the same compound, the PHOSPHORUS [3] was 14.07 mg/dL, the POTASSIUM [3] was 6.17 MEQ/L and the SODIUM [3] was 142.93 MEQ/L. For the same compound, the “TOTAL BILIRUBIN” value [3] was 0.2 mg/dL and the “TOTAL PROTEIN” value [3] was 5.43 G/DL.

Source: ChEMBL document CHEMBL3885881, “DrugMatrix”
